Data reported in patent US8501955B2, “Acetamide derivatives as glucokinase activators, their process and medicinal application” (Advinus Therapeutics Private Limited, priority 2007, dated 2013).

Key:
[1] = biological target: T1, purified human recombinant GK (Homo sapiens, UniProt P35557); assay: Glucokinase activity assay (coupled enzymatic GK/G6PD assay, NADH absorbance at 340 nm); assay type: biochemical; conditions: for EC50: EC50 of % change in S0.5 of glucokinase for glucose, sigmoidal fit, read-out: EC50 (with respect to % ΔS0.5); for Emax: read-out: % Emax (with respect to % ΔS0.5)
T1 sequence (P35557 1-465): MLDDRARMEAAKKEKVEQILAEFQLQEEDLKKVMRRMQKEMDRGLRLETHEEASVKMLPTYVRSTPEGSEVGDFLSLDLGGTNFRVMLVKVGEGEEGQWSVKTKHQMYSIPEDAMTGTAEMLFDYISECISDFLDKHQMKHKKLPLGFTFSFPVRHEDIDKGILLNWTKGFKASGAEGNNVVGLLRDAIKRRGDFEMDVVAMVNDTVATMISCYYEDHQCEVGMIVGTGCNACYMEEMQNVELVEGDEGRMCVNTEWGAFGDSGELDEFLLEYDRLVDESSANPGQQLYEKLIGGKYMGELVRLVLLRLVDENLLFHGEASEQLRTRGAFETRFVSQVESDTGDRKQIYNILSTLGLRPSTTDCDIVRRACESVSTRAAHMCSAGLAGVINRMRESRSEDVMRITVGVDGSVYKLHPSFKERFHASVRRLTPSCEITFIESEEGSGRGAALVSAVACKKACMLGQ
From the text: The glucokinase (GK) assay is a coupled enzymatic assay. GK catalyzes the first step of glycolysis, the conversion of glucose to glucose-6-phosphate (G6P) in the presence of ATP. G6P in turn is converted by glucose-6-phosphate dehydrogenase (G6PD) to 6-phosphogluconate, a process that requires NAD, resulting in NADH formation. Since the GK-catalyzed step is the rate-limiting step of this coupled enzymatic process, the rate of accumulation of 6-phosphogluconate and NADH is directly proportional to the rate of glucose phosphorylation by GK. The rate of the GK-catalyzed reaction can therefore be measured by monitoring the increase in NADH absorbance at 340 nm.
The assay is carried out according to the protocol outlined in Hariharan et al (1997), Diabetes 46: 11-16. Briefly, the test compounds are incubated in a reaction mix containing 25 mM HEPES (pH 7.2), 10 mM MgCl2, 100 mM KCl, 5 mM ATP, 2 mM DTT, 0.5 mM NAD, 1 U/ml Leuconostoc mesenteroides G6PD, 0.3 U/ml of purified human recombinant GK, and different concentrations of glucose. Enzymatic activity is calculated from the initial reaction velocity, measured from the change in NADH absorbance as a function of time.
Compounds described in formula (I), in concentration ranges from 1.0 nM to […] are tested in the purified human recombinant glucokinase assay described above.
A compound is considered to be a glucokinase activator if it, in its testable range of concentrations, yields a higher rate of glucose phosphorylation than in its absence at a particular glucose concentration, for example at 5 mM glucose.
Compounds of general formula (I) are tested in the in vitro GK enzymatic assay to monitor dose-dependent effect on glucokinase activation (in kinetic mode), as described above, at various glucose concentrations. The S0.5 of glucokinase for glucose at different concentration of each compound of interest is calculated from the following modified version of the Michaelis-Menten equation, V=Vmax[S]^n/(S0.5^n+[S]^n), where [S] is the glucose concentration and n is the Hill coefficient (taken as 1.7 to account for the sigmoidal kinetics of glucokinase with respect to glucose). The S0.5 is plotted against the log of the compound concentration. The change in the S0.5 of glucokinase (ΔS0.5) for glucose is calculated by subtracting the S0.5 at each concentration of the compound from the S0.5 in the vehicle control. The ΔS0.5 is then normalized to a percent scale, where the S0.5 in the vehicle control is set to 0% and 0 mM glucose is set to 100%. The % ΔS0.5 is then plotted against the log of the compound concentration. The EC50 and Emax of % change in S0.5 is obtained from the sigmoidal fit of the data. Detailed protocol has been described in our copending application no. WO 2008/104994 which is incorporated herein by reference. Characterization data of some representative glucokinase activators of the present disclosure, which are illustrative but not limiting, are given in table 1 below.

primary rat hepatocytes = assay: Measurement of glycogen synthesis in primary rat hepatocytes; assay type: cell-based; conditions: 10 mM glucose, fold increase over DMSO control; for fold induction at 10 µM: Rattus norvegicus, Hepatocyte, 3 h, 10 μM compound
Protocol: Primary hepatocytes are collected from male Wistar rats, and tested for viability by trypan blue exclusion. Primary hepatocytes cultures with viability greater than 95% are selected for the glycogen synthesis assay. The cells are seeded in a 48-well plate at a density of 200,000 cells/well in 250 μl Minimal Essential Medium (MEM) containing 10% foetal calf serum (FCS) and 1.7 μM insulin, and incubated for 4 hours at 37° C. to allow attachment. The medium is replaced with fresh MEM containing 10% FCS, 1.7 μM insulin and 10 nM dexamethasone, and the cells are incubated for 16 hours at 37° C. The medium is then replaced with fresh MEM (serum-free) containing 2 μCi/ml of D-[U^14C]-Glucose along with 10 μM of the compound in a final DMSO concentration of 0.1%. The final glucose concentration is brought to 10 mM by the addition of D-Glucose (MEM already contains 5 mM glucose). The cells are incubated for 3 hours at 37° C. The cells are washed twice with 150 mM NaCl, lysed with 0.1 N NaOH, and the lysate precipitated with 8% w/v trichloroacetic acid (TCA) and 1 mg/well unlabeled glycogen as carrier. Cell debris is pelleted by centrifugation, the supernatant is removed, and the glycogen is precipitated with 63% ethanol. After another round of centrifugation, the supernatant is removed, and the pellet containing the precipitated glycogen is dried overnight. De novo synthesized glycogen is estimated in a scintillation counter (MicroBeta Trilux, Perkin Elmer), and expressed as fold increase over DMSO control.
The protocol for the glycogen assay is based on the method described in “Biochem J. 1990 Feb. 15; 266(1): 91-102” with a few minor modifications. The protocol for isolation of primary rat hepatocytes is based on the method described in “Methods in Enzymology, Vol. III. pp 34-50. Ed. by S. P. Colowick and N. O. Kaplan. New York, Academic Press, 1957” with a few minor modifications.
Compounds described in formula (I), in concentration ranges from 1.0 nM to 500 μM, are tested in glycogen synthesis assay described above.

[2] = Emax of % change in S0.5, vehicle S0.5 = 0%, 0 mM glucose = 100%

Row | SMILES | EC50 [1] [µM] | Emax [1, 2] [%] | % Emax (with respect to % ΔS0.5) [1, 2] [%] | fold induction at 10 µM (primary rat hepatocytes) | Fold increase in glycogen synthesis at 10 μM compound (primary rat hepatocytes; 3 hours) [fold]
1 | Cc1csc(NC(=O)C(Oc2ccc(F)cc2F)c2ccc(S(=O)(=O)C3CC3)cc2)n1 (centres unmarked) [Example A15, 2-(4-Cyclopropanesulfonylphenyl)-2-(2,4-difluorophenoxy)-N-(4-methyl-thiazol-2-yl)acetamide] |  |  |  | 3.7 | 
2 | O=C(Nc1ncc(F)s1)C(Oc1ccc(F)cc1F)c1ccc(S(=O)(=O)C2CC2)cc1 (centres unmarked) [Example A3, 2-(4-Cyclopropanesulfonylphenyl)-2-(2,4-difluorophenoxy)-N-(5-fluorothiazol-2-yl)-acetamide] | 0.2 | 95 |  | 2.9 | 
3 | COc1ccc2nc(NC(=O)C(OC3CCOCC3)c3ccc(S(=O)(=O)C4CC4)cc3)sc2n1 (single isomer, unassigned; (+)) [Example H12A, (+)2-(4-Cyclopropanesulfonyl-phenyl)-N-(5-methoxy-thiazolo[5,4-b]pyridin-2-yl)-2-(tetrahydro-pyran-4-yloxy)-Acetamide] |  |  |  | 5 | 
4 | O=C(Nc1ncc(Cl)s1)C(Oc1ccc(F)cc1F)c1ccc(S(=O)(=O)C2CC2)cc1 (centres unmarked) [Example A2, N-(5-Chlorothiazol-2-yl)-2-(4-cyclopropanesulfonylphenyl)-2-(2,4-difluorophenoxy)acetamide] | 0.13 | 95 |  |  | 
5 | O=C(Nc1ccc(Cl)cn1)C(Oc1ccc(Cl)cc1F)c1ccc(S(=O)(=O)C2CC2)cc1 (centres unmarked) [Example A41, 2-(4-Chloro-2-fluorophenoxy)-N-(5-chloropyridin-2-yl)-2-(4-cyclopropanesulfonylphenyl)-acetamide] | 0.46 | 90 |  |  | 
6 | O=C(Nc1cc[nH]n1)C(Oc1ccc(F)cc1F)c1ccc(S(=O)(=O)C2CCCC2)c(Cl)c1 (centres unmarked) [Example A37, 2-(3-Chloro-4-cyclopentanesulfonylphenyl)-2-(2,4-difluorophenoxy)-N-(1H-pyrazol-3-yl)acetamide] | 2 | 90 |  |  | 
7 | O=C(O)c1ccc(Oc2cnc(NC(=O)C(OC3CCOCC3)c3ccc(S(=O)(=O)C4CC4)cc3)s2)c(F)c1 (centres unmarked) [Example B94, 4-{2-[2-(4-Cyclopropanesulfonyl-phenyl)-2-(tetrahydro-pyran-4-yloxy)-acetylamino]-thiazol-5-yloxy}-3-fluoro-benzoic acid] |  |  |  | 8.7 | 
8 | O=C(O)c1ccc(Oc2cnc(NC(=O)C(OC3CCOCC3)c3ccc(S(=O)(=O)C4CC4)cc3)s2)cc1 (single isomer, unassigned; (+)) [Example H7A, (+) 4-{2-[2-(4-Cyclopropanesulfonyl-phenyl)-2-(tetrahydro-pyran-4-yloxy)-acetylamino]-thiazol-5-yloxy}-benzoic acid] |  |  |  | 7.7 | 
9 | O=C(Nc1ncc(F)s1)C(Oc1ccc(F)cc1F)c1ccc(S(=O)(=O)C2CCCC2)c(Cl)c1 (centres unmarked) [Example A36, 2-(3-Chloro-4-cyclopentanesulfonylphenyl)-2-(2,4-difluorophenoxy)-N-(5-fluoro-thiazol-2-yl)acetamide] | 0.11 | 95 |  |  | 

More lines, main results first:

Row | EC50 [1] [µM] | Emax [1, 2] [%] | % Emax (with respect to % ΔS0.5) [1, 2] [%] | SMILES | fold induction at 10 µM (primary rat hepatocytes) | Fold increase in glycogen synthesis at 10 μM compound (primary rat hepatocytes; 3 hours) [fold]
10 | 0.076 | 93 |  | COc1cnc(NC(=O)C(Oc2ccc(F)cc2F)c2ccc(S(=O)(=O)C3CC3)cc2)s1 (centres unmarked) [Example A75, 2-(4-Cyclopropanesulfonyl-phenyl)-2-(2,4-difluoro-phenoxy)-N-(5-methoxy-thiazol-2-yl)-acetamide] | 7.1 | 
11 | 0.11 | 90 |  | O=C(Nc1ncc(Oc2ccc(C(=O)N3CCC3)cc2)s1)C(OC1CCOCC1)c1ccc(S(=O)(=O)C2CC2)cc1 (centres unmarked) [Example G6] | 6.2 | 
12 | 3.3 | 95 |  | O=C(O)Cc1nc(NC(=O)C(Oc2ccc3[nH]ccc3c2)c2ccc(S(=O)(=O)C3CC3)cc2)sc1Cl (centres unmarked) [Example B19, {5-Chloro-2-[2-(4-cyclopropanesulfonylphenyl)-2-(1H-indol-5-yloxy)acetylamino]thiazol-4-yl}acetic acid] | 3.3 | 
13 | 2.47 |  | 90 | O=C(O)Cc1csc(NC(=O)C(Oc2ccc(F)cc2F)c2ccc(S(=O)(=O)C3CC3)cc2)n1 (single isomer, unassigned; (+)) [Example F3, (+)-{2-[2-(4-Cyclopropanesulfonylphenyl)-2-(2,4-difluorophenoxy)acetylamino]thiazol-4-yl}acetic acid] |  | 7.0
14 | 2.37 | 90 |  | O=C(O)Cc1csc(NC(=O)C(Oc2ccc(F)cc2F)c2ccc(S(=O)(=O)C3CC3)cc2)n1 (single isomer, unassigned; (-)) [Example E3, (−){2-[2-(4-Cyclopropanesulfonylphenyl)-2-(2,4-difluorophenoxy)acetylamino]-thiazol-4-yl}acetic acid] | 9.5 | 
15 | > 10 |  |  | Cc1nc(NC(=O)C(Oc2ccc(F)cc2F)c2ccc(S(=O)(=O)C3CC3)cc2)sc1C(=O)O (centres unmarked) [Example B12, 2-[2-(4-Cyclopropanesulfonylphenyl)-2-(2,4-difluorophenoxy)acetylamino]-4-methylthiazole-5-carboxylic acid] |  | 
16 | 0.2 | 90 |  | NC(=O)c1cccc(Oc2cnc(NC(=O)C(Oc3ccc(F)cc3F)c3ccc(S(=O)(=O)C4CC4)cc3)s2)c1 (centres unmarked) [Example G3, 3-{2-[2-(4-Cyclopropanesulfonyl-phenyl)-2-(2,4-difluoro-phenoxy)-acetylamino]-thiazol-5-yloxy}-benzamide] |  | 
17 | 0.22 | 91 |  | O=C(O)Cc1ccc(Oc2cnc(NC(=O)C(OC3CCOCC3)c3ccc(S(=O)(=O)C4CC4)cc3)s2)cc1 (centres unmarked) [Example B100, (4-{2-[2-(4-Cyclopropanesulfonyl-phenyl)-2-(tetrahydro-pyran-4-yloxy)-acetylamino]-thiazol-5-yloxy}-phenyl)-acetic acid] |  | 
